Assay [1] concerns 290 kinases (excluding mutants). In kind it is binding. The note with it: for Ka-Gini: Gini score calculated directly on Kas of the Ambit dataset (Kds of ref 5); for entropies (selectivity entropy, Ssel): calculated from Kds of the Ambit dataset (ref 5); for entropies (selectivity entropy, Ssel) / number of kinases inhibited below 3 μM: 290 kinases; for number of kinases inhibited below 3 μM: Ambit profile. The source says:
Having defined the entropy, we next investigated its performance relative to the most widely-used methods, on a public profiling dataset of 38 inhibitors on 290 non-mutant kinases (Table 1 and Additional file 1). […] To this we added a Ka-Gini value and the selectivity entropy. The Ka-Gini is a Gini score directly calculated on Kas, without reverting to %-inhibition values (see below). […] In addition, to get an overview of the profiling raw data, we appended an activity-based heat map (Uitdehaag_S1).
(§1) It is worth to note that the partition coefficient is the same as ϕl in our entropy equation (eq. 2).
The Gini score was calculated from data on %-inhibition. […] In addition, to work more directly with Kds, we also introduce a Ka-Gini score, in which association constants are used for rank-ordering the kinase profile. […] All calculations were done in Microsoft Excel. […]

The next assay relates to 222 human kinases. The experiment in a line: Millipore kinase profiling (radioactive filter binding activity assay at [ATP] = KM,ATP) and selectivity metrics calculated from it. Type of assay: biochemical. Further details: selectivity score: scale not given here. The settings on record: for Ka-Gini score / Pmax / S10x / selectivity score: calculated from Millipore activity data; for selectivity entropy: calculated from Millipore activity data (pEC50), [ATP] = KM,ATP.
Source text: As a next step we selected 16 compounds from the public profile (Ambit), and measured activity data on these using a different profiling service (Millipore, data available as Additional file 2). […] Also for these new data, we calculated the selectivity metrics (Uitdehaag_S2). In the ideal case, the selectivity values are similar irrespective of profiling technology (in the same way that a Kd value is ideally independent of laboratory and assay format). The data of both methods are plotted in Figure 2.
as §1
The Gini score was calculated from data on %-inhibition. […] In addition, to work more directly with Kds, we also introduce a Ka-Gini score, in which association constants are used for rank-ordering the kinase profile. […] All calculations were done in Microsoft Excel.
For comparing profiles across methods (Figure 2), we selected 16 kinase inhibitors of the Ambit profile (Table 2) and submitted these to the kinase profiling service from Millipore (http://www.millipore.com/drugdiscovery/svp3/kpservices, data available as Additional file 2). Both profiling methods are described earlier and differ (among other variations) in the following way: Ambit uses a competitive binding setup in absence of ATP on kinases from T7 or HEK293 expression systems. Millipore uses a radioactive filter binding activity assay, with kinases purified from Escherichia coli or baculovirus expression systems.

Assay [2] concerns 290 kinases (excluding mutants). The note with it: cited from earlier work; for Gini: 38 inhibitors on 290 non-mutant kinases; for S10x: fraction of kinases hit at 10 times the Kd of the target.
A further assay has as its target PDGFRβ. The settings on record: Ambit profiling raw data; cited from earlier work.
Setting [3] is: Ambit dataset, values taken from earlier work.
Where [4] appears, read: Ambit dataset, fraction of kinases hit below 3 μM, values taken from earlier work.
The mark [5] stands for this setting: rank among 38 inhibitors, Ambit dataset.

The values that follow come from publication PMC3100252, “A theoretical entropy score as a single value to express inhibitor selectivity” (BMC Bioinformatics, 2011).

pKd: −log10 of the molar value. Like-named read-outs stand apart in the source and are kept apart here.

A word on the pKd: it is the Kd on a negative log10 scale, so that one unit is a factor of ten.

As to `CCN(CCO)CCCOc1ccc2c(Nc3cc(CC(=O)Nc4cccc(F)c4)[nH]n3)ncnc2c1` [AZD1152HQPA], in assay [1], the Ka-Gini is given as 0.98 and the “entropies (selectivity entropy, Ssel)” value is given as 1.91. In the assay with 222 human kinases, the Ka-Gini score is listed as 0.993, the Pmax is recorded as 0.603, the S10x is recorded as 0.007 and the selectivity score was 0.041. In addition, the selectivity entropy with 222 human kinases is recorded as 1.366. Also, in assay [2] (setting [3]), the Gini is on record as 0.78, the S10x is 0.02 and the “Pmax (partition index)” value was 0.34. For the same molecule, the “S3uM (selectivity score S(3 μM))” value in assay [2] (setting [4]) was 0.10.
Turning to `Cc1ccc(-n2nc(C(C)(C)C)cc2NC(=O)Nc2ccc(OCCN3CCOCC3)c3ccccc23)cc1` [BIRB-796, doramapimod], the Ka-Gini in assay [1] is 0.99. In the assay on 222 human kinases, the Ka-Gini score was 0.984, the Pmax is reported as 0.440 and the S10x is listed as 0.011. Moreover, the Gini in assay [2] (setting [3]) is 0.81.
As for `Cn1c(Nc2ccc(C(F)(F)F)cc2)nc2cc(Oc3ccnc(-c4ncc(C(F)(F)F)[nH]4)c3)ccc21` [CHIR265], in assay [1], the Ka-Gini is reported as 0.96. In the assay with 222 human kinases, the Ka-Gini score is 0.982, the Pmax is 0.304 and the S10x is reported as 0.014. Moreover, the Gini in assay [2] (setting [3]) is given as 0.74.
As for `Cc1nc(Nc2ncc(C(=O)Nc3c(C)cccc3Cl)s2)cc(N2CCN(CCO)CC2)n1` [Dasatinib, dasatinib], the Ka-Gini in assay [1] was 0.93. Moreover, in the assay with 222 human kinases, the Ka-Gini score is reported as 0.943, the Pmax is 0.041 and the S10x is 0.070. The Gini in assay [2] (setting [3]) is on record as 0.79.
For `COc1cc2c(N3CCN(C(=O)Nc4ccc(OC(C)C)cc4)CC3)ncnc2cc1OCCCN1CCCCC1` [MLN-518, tandutinib], in assay [1], the “number of kinases inhibited below 3 μM” value came out at 10 kinases; the Ka-Gini was 0.98; the “entropies (selectivity entropy, Ssel)” value is on record as 1.58. For the same molecule, in assay [1] (setting [5]), the “selectivity rank by Ka-Gini” value amounted to 14, the “selectivity rank by Pmax” value was 26 and the “selectivity rank by selectivity entropy” value was 15. For the same molecule, in the assay with 222 human kinases, the Ka-Gini score was 0.993, the Pmax was 0.621, the S10x is listed as 0.005 and the selectivity score is listed as 0.032. Also, in the assay with 222 human kinases, the selectivity entropy is reported as 1.300. For the same molecule, in assay [2] (setting [3]), the Gini is given as 0.74, the S10x was 0.01 and the “Pmax (partition index)” value is on record as 0.26. In assay [2] (Ambit profile, 4 kinases not named), the “potencies on the 4 kinases hit with roughly equal potencies” value was 2 to 10 nM. For the same molecule, in assay [2], the “S3uM (selectivity score S(3 μM))” value is reported as 0.06.
In the case of `O=C(O)c1ccc(Nc2ncc3c(n2)-c2ccc(Cl)cc2C(c2c(F)cccc2F)=NC3)cc1` [MLN-8054], in assay [1], the Ka-Gini is on record as 0.97 and the “entropies (selectivity entropy, Ssel)” value is 1.95. Moreover, in the assay on 222 human kinases, the Ka-Gini score was 0.980, the Pmax was 0.617, the S10x is 0.002 and the selectivity score is 0.154. Besides, in the assay on 222 human kinases, the selectivity entropy is reported as 1.903. For the same molecule, in assay [2] (setting [3]), the Gini is on record as 0.75, the S10x is 0.01 and the “Pmax (partition index)” value is reported as 0.36. In assay [2] (setting [4]), the “S3uM (selectivity score S(3 μM))” value is recorded as 0.13.
Take `Oc1cccc(-c2nc(N3CCOCC3)c3oc4ncccc4c3n2)c1` [PI-103]: in assay [1], the Ka-Gini is 0.99 and the “entropies (selectivity entropy, Ssel)” value is reported as 0.05. For the same molecule, in the assay on 222 human kinases, the Ka-Gini score was 0.995, the Pmax was 0.561, the S10x is on record as 0.005 and the selectivity score is on record as 0.014. Moreover, the selectivity entropy in the assay with 222 human kinases was 0.876. Further, in assay [2] (setting [3]), the Gini is recorded as 0.41, the S10x is 0.00 and the “Pmax (partition index)” value is 0.97.
`Cc1[nH]c(/C=C2\C(=O)Nc3ccc(F)cc32)c(C)c1C(=O)NC[C@H](O)CN1CCOCC1` [SU-14813]: in assay [1], the Ka-Gini is reported as 0.97 and the “entropies (selectivity entropy, Ssel)” value is given as 2.04. In assay [2] (setting [3]), the Gini is on record as 0.70, the S10x is listed as 0.02 and the “Pmax (partition index)” value is recorded as 0.18. Also, the “S3uM (selectivity score S(3 μM))” value in assay [2] (setting [4]) was 0.51. At PDGFRβ, the pKd is 9.54.
Regarding `CNC(=O)c1cc(Oc2ccc(NC(=O)Nc3ccc(Cl)c(C(F)(F)F)c3)cc2)ccn1` [Sorafenib, sorafenib], in assay [1], the Ka-Gini is 0.97. Besides, in the assay on 222 human kinases, the Ka-Gini score is reported as 0.975, the Pmax is on record as 0.149 and the S10x is reported as 0.029. Besides, in assay [2] (setting [3]), the Gini is reported as 0.82 and the S10x is 0.10.
With `CCN(CC)CCNC(=O)c1c(C)[nH]c(/C=C2\C(=O)Nc3ccc(F)cc32)c1C` [Sunitinib, sunitinib], the “number of kinases inhibited below 3 μM” value in assay [1] is recorded as 181 kinases. Moreover, in the assay on 222 human kinases, the Pmax was 0.107 and the S10x is 0.038. Further, in assay [2] (setting [3]), the Gini is 0.67 and the S10x is reported as 0.02.
For `Cc1cc(Nc2cc(N3CCN(C)CC3)nc(Sc3ccc(NC(=O)C4CC4)cc3)n2)[nH]n1` [VX-680, tozasertib], in assay [1], the Ka-Gini is 0.93 and the “entropies (selectivity entropy, Ssel)” value is reported as 3.09. For the same molecule, in the assay with 222 human kinases, the Ka-Gini score is listed as 0.972, the Pmax was 0.278, the S10x is 0.020 and the selectivity score is on record as 0.199. For the same molecule, the selectivity entropy in the assay with 222 human kinases was 2.625. Besides, in assay [2] (setting [3]), the Gini is 0.76, the S10x is recorded as 0.03 and the “Pmax (partition index)” value is 0.15. Also, the “S3uM (selectivity score S(3 μM))” value in assay [2] (setting [4]) is listed as 0.38.
On to `O=c1ncn2nc(Sc3ccc(F)cc3F)ccc2c1-c1c(Cl)cccc1Cl` [VX-745], for which, in assay [1], the Ka-Gini is 0.99 and the “entropies (selectivity entropy, Ssel)” value is 0.28. Further, in the assay on 222 human kinases, the Ka-Gini score is 0.997, the Pmax is on record as 0.820, the S10x is listed as 0.005 and the selectivity entropy was 0.590. Besides, in assay [2] (setting [3]), the Gini is 0.51, the S10x is 0.00 and the “Pmax (partition index)” value is 0.92. Moreover, in assay [2] (setting [4]), the “S3uM (selectivity score S(3 μM))” value is recorded as 0.03.
As for `COc1cc2c(Nc3ccc(Br)cc3F)ncnc2cc1OCC1CCN(C)CC1` [ZD-6474, vandetanib], in assay [1], the “number of kinases inhibited below 3 μM” value came out at 79 kinases and the Ka-Gini is 0.94. Besides, in the assay on 222 human kinases, the Ka-Gini score was 0.963, the Pmax is listed as 0.117 and the S10x is 0.041. In assay [2] (setting [3]), the Gini was 0.79 and the S10x is 0.26.
